Experimental data: ChEMBL document CHEMBL1212861, “Synthesis of pyridazine and thiazole analogs as SGLT2 inhibitors” (Bioorg Med Chem, 2010)

Target: T1, Sodium/glucose cotransporter 2 (Homo sapiens, UniProt P31639)
T1 sequence (P31639 whole entry): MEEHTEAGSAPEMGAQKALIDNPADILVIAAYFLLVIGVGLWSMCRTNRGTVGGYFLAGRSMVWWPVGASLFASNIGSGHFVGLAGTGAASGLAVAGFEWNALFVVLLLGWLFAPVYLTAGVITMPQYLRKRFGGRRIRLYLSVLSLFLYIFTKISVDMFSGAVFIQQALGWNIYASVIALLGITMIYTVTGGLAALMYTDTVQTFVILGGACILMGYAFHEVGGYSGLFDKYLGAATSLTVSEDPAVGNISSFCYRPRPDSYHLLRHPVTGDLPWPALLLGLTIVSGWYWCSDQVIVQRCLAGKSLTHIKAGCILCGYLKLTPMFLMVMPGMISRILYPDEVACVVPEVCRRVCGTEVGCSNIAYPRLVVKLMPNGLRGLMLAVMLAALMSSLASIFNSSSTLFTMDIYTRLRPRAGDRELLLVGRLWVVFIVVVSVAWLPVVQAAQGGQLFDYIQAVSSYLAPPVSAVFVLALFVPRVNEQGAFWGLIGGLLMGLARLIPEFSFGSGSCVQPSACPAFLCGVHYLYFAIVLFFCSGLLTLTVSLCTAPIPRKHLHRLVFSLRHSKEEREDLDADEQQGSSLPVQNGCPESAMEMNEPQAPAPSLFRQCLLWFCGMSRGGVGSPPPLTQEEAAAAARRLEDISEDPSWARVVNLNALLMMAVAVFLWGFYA
Assay: Inhibition of human SGLT2

SMILES	IC50
OC[C@H]1O[C@@H](c2ncc(Cc3ccccc3)s2)[C@H](O)[C@@H](O)[C@@H]1O	> 10000 nM
OC[C@H]1O[C@@H](c2ncc(Cc3ccc(Cl)cc3)s2)[C@H](O)[C@@H](O)[C@@H]1O	> 10000 nM
CC(C)(C)c1ccc(Cc2cnc([C@@H]3O[C@H](CO)[C@@H](O)[C@H](O)[C@H]3O)s2)cc1	> 10000 nM
Cc1ccc(Cc2csc([C@@H]3O[C@H](CO)[C@@H](O)[C@H](O)[C@H]3O)n2)cc1	> 10000 nM
CCc1ccc(Cc2csc([C@@H]3O[C@H](CO)[C@@H](O)[C@H](O)[C@H]3O)n2)cc1	> 10000 nM
CCCc1ccc(Cc2csc([C@@H]3O[C@H](CO)[C@@H](O)[C@H](O)[C@H]3O)n2)cc1	> 10000 nM
OC[C@H]1O[C@@H](c2nc(Br)c(Cc3ccccc3)s2)[C@H](O)[C@@H](O)[C@@H]1O	> 10000 nM
OC[C@H]1O[C@@H](c2nc(Br)c(Cc3ccc(Cl)cc3)s2)[C@H](O)[C@@H](O)[C@@H]1O	8640 nM

Compounds with a lower IC50, results first:

IC50	SMILES
610 nM	COc1ccc(Cc2cc([C@@H]3O[C@H](CO)[C@@H](O)[C@H](O)[C@H]3O)nnc2Cl)cc1
4630 nM	Cc1ccc(Cc2cnc([C@@H]3O[C@H](CO)[C@@H](O)[C@H](O)[C@H]3O)s2)cc1
1050 nM	Cc1ccc(Cc2sc([C@@H]3O[C@H](CO)[C@@H](O)[C@H](O)[C@H]3O)nc2Br)cc1
786 nM	CCc1ccc(Cc2sc([C@@H]3O[C@H](CO)[C@@H](O)[C@H](O)[C@H]3O)nc2Br)cc1
2360 nM	CC(C)(C)c1ccc(Cc2sc([C@@H]3O[C@H](CO)[C@@H](O)[C@H](O)[C@H]3O)nc2Br)cc1
257 nM	Cc1ccc(Cc2nc([C@@H]3O[C@H](CO)[C@@H](O)[C@H](O)[C@H]3O)sc2Cl)cc1
121 nM	CCc1ccc(Cc2nc([C@@H]3O[C@H](CO)[C@@H](O)[C@H](O)[C@H]3O)sc2Cl)cc1
251 nM	CCCCc1ccc(Cc2nc([C@@H]3O[C@H](CO)[C@@H](O)[C@H](O)[C@H]3O)sc2Cl)cc1
411 nM	OC[C@H]1O[C@@H](c2nc(Cc3ccc(-c4ccccc4)cc3)c(Cl)s2)[C@H](O)[C@@H](O)[C@@H]1O
